Laboratory results as given in patent US9029563B2, “Substituted 1-benzylindolin-2-one analogs as positive allosteric modulators of muscarinic acetylcholine M1 receptors” (Vanderbilt University, priority 2012, dated 2015).

Biological target: T1, mAChR M1 (UniProt P08482)
T1 sequence (P08482 1-460): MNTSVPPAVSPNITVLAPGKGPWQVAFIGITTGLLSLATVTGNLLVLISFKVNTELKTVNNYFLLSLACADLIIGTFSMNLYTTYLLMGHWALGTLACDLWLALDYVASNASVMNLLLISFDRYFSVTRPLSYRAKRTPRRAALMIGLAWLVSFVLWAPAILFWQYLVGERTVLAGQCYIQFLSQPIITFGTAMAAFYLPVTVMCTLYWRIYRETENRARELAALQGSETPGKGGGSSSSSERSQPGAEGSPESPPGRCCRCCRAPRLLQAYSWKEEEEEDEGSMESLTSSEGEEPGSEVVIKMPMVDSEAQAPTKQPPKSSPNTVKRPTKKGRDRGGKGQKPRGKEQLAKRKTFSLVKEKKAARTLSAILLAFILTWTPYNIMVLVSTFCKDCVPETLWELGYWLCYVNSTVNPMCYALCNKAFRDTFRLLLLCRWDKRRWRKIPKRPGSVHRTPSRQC
Test: mAChR M1 cell-based functional assay (calcium mobilization, PAM mode)
Details: for Emax: Percent of AChmax activity in presence of 30 μM test compound; for EC50: potentiation of EC20 acetylcholine response, calcium flux in CHO-K1 cells expressing mAChR M1, >10 μM is estimated for low potency compounds without plateau
Source text: Chinese hamster ovary (CHO-K1) cells stably expressing rat (r)M1 were purchased from the American Type Culture Collection and cultured according to their indicated protocol. CHO cells stably expressing human (h)M2, hM3, and hM5 were described previously (Levey et al., 1991); hM1 and hM4 cDNAs were purchased from Missouri S&T cDNA Resource; rM4 cDNA was provided by T. I. Bonner (National Institutes of Health, Bethesda, Md.). rM2 and rM3 were cloned from a rat brain cDNA library and sequence verified. hM1, rM2, rM3, hM4, and rM4 cDNAs were used to stably transfect CHO-K1 cells purchased from the American Type Culture Collection using Lipofectamine-2000. To make stable rM2, hM2, hM4, and rM4 cell lines for use in calcium mobilization assays, these cells also were stably transfected with a chimeric G-protein (Gqi5) (provided by B.R. Conklin, University of California, San Francisco) using Lipofectamine 2000. rM1, hM1, rM3, hM3, rM5, and hM5 cells were grown in Ham's F-12 medium containing 10% heat-inactivated fetal bovine serum (FBS), 20 mM HEPES, and 50 μg/mL G418 sulfate. rM2-Gqi5, hM2-Gqi5, and hM4-Gqi5 cells were grown in the same medium also containing 500 μg/mL Hygromycin B. Stable rM4-Gqi5 cells were grown in DMEM containing 10% heat-inactivated FBS, 20 mM HEPES, 400 μg/mL G418 sulfate, and 500 μg/mL Hygromycin B.
For high throughput measurement of agonist-evoked increases in intracellular calcium, CHO-K1 cells stably expressing muscarinic receptors were plated in growth medium lacking G418 and hygromycin at 15,000 cells/20 μL/well in Greiner 384-well black-walled, tissue culture (TC)-treated, clear-bottom plates (VWR). Cells were incubated overnight at 37° C. and 5% CO2. The next day, cells were washed using an ELX 405 (BioTek) with four washes (80 μL) of assay buffer then aspirated to 20 μL. Next, 20 μL of 16 μM Fluo-4/acetoxymethyl ester (Invitrogen, Carlsbad, Calif.) prepared as a 2.3 mM stock in DMSO and mixed in a 1:1 ratio with 10% (w/v) Pluronic F-127 and diluted in assay buffer was added to the wells and the cell plates were incubated for 50 min at 37° C. and 5% CO2. Dye was removed by washing with the ELX 405 (four 80 μL washes of assay buffer) then aspirated to 20 μL. Compound master plates were formatted in an 11 point CRC format (1:3 dilutions) in 100% DMSO with a starting concentration of 10 mM using the BRAVO liquid handler (Agilent). Test compound CRCs were then transferred to daughter plates (240 nL) using the Echo acoustic plate reformatter (Labcyte, Sunnyvale, Calif.) and then diluted into assay buffer (40 μL) to a 2× stock using a Thermo Fisher Combi (Thermo Fisher Scientific, Waltham, Mass.).
Calcium flux was measured using the Functional Drug Screening System (FDSS) 6000 (Hamamatsu Corporation, Tokyo, Japan) as an increase in the fluorescent static ratio. Compounds were applied to cells (20 μL, 2×) using the automated system of the FDSS 6000 at 4 s into the 300 s protocol and the data were collected at 1 Hz. At 144 s into the 300 s protocol, 10 μL of an EC20 concentration of the muscarinic receptor agonist acetylcholine was added (5×), followed by the addition of 12 μL an EC80 concentration of acetylcholine at the 230 s time point (5×). Agonist activity was analyzed as a concentration-dependent increase in calcium mobilization upon compound addition. Positive allosteric modulator activity was analyzed as a concentration-dependent increase in the EC20 acetylcholine response. Antagonist activity was analyzed as a concentration-dependent decrease in the EC80 acetylcholine response. Concentration-response curves were generated using a four-parameter logistical equation in XLFit curve fitting software (IDBS, Bridgewater, N.J.) for Excel (Microsoft, Redmond, Wash.) or Prism (GraphPad Software, Inc., San Diego, Calif.).
The calcium mobilization assay was also used to determine “efficacy”. […]

SMILES | Emax [%] | EC50 [µM]
CN(C)C1(C)C(=O)N(Cc2ccc(-c3cnn(C)c3)cc2)c2ccccc21 (racemic) [Compound B7, 3-(dimethylamino)-3-methyl-1-(4-(1-methyl-1H-pyrazol-4-yl)benzyl)indolin-2-one] | 43 | 5.5
Cn1cc(-c2ccc(CN3C(=O)C(O)(C(F)(F)F)c4ccccc43)c(F)c2)cn1 (single isomer, unassigned) [Compound B18, 1-(2-fluoro-4-(1-methyl-1H-pyrazol-4-yl)benzyl)-3-hydroxy-3-(trifluoromethyl)indolin-2-one] | – | > 30
Cn1cc(-c2ccc(CN3C(=O)Cc4ccccc43)c(F)c2)cn1 [Compound B1] | 75 | 2.6
Cn1cc(-c2ccc(CN3C(=O)C(O)(CF)c4ccccc43)c(F)c2)cn1 (stereo not shown) [Compound B4, 1-(2-fluoro-4-(1-methyl-1H-pyrazol-4-yl)benzyl)-3-(fluoromethyl)-3-hydroxyindolin-2-one] | 52 | 4.6
Cc1n[nH]cc1-c1ccc(CN2C(=O)C(O)(C(F)(F)F)c3ccccc32)c(F)c1 (stereo not shown) [Compound B5] | 37 | 4.9
Cn1cc(-c2ccc(CN3C(=O)C(O)(C(F)(F)F)c4ccccc43)c(F)c2)cn1 (stereo not shown) [Compound B6, 1-(2-fluoro-4-(1-methyl-1H-pyrazol-4-yl)benzyl)-3-hydroxy-3-(trifluoromethyl)indolin-2-one] | 60 | 5
Cn1cc(-c2ccc(CN3C(=O)C(C)(O)c4ccccc43)c(F)c2)cn1 (stereo not shown) [Compound B8, 1-(2-fluoro-4-(1-methyl-1H-pyrazol-4-yl)benzyl)-3-hydroxy-3-methylindolin-2-one] | 52 | > 10
CC1C(=O)N(Cc2ccc(-c3cnn(C)c3)cc2F)c2ccccc21 (stereo not shown) [Compound B9] | 55 | > 10
Cn1cc(-c2ccc(CN3C(=O)C(O)(C(F)(F)F)c4ccccc43)cc2F)cn1 (stereo not shown) [Compound B11] | 45 | > 10
CC(C)n1cc(-c2ccc(CN3C(=O)C(O)(C(F)(F)F)c4ccccc43)c(F)c2)cn1 (stereo not shown) [Compound B13] | 38 | > 10
CCn1cc(-c2ccc(CN3C(=O)C(O)(C(F)(F)F)c4ccccc43)c(F)c2)cn1 (stereo not shown) [Compound B14] | 45 | > 10
Cn1cc(-c2ccc(CN3C(=O)C(O)(C(F)(F)F)c4ccccc43)cn2)cn1 (stereo not shown) [Compound B17] | 54 | > 10
Cn1cc(-c2ccc(CN3C(=O)C(O)(C(F)(F)F)c4ccccc43)c(F)c2)cn1 (stereo not shown) [Compound B19] | 54 | 3.64
Cn1cc(-c2ccc(CN3C(=O)C(O)(C(F)(F)F)c4ccccc43)cc2F)cn1 (stereo not shown) [Compound B21] | 38 | > 10

Further lines, results first:

Emax [%] | EC50 [µM] | SMILES
28 | > 10 | Cn1cc(-c2ccc(CN3C(=O)C(C)(N)c4ccccc43)cc2)cn1 (racemic) [Compound B15, 3-amino-3-methyl-1-(4-(1-methyl-1H-pyrazol-4-yl)benzyl)indolin-2-one]
68 | 3.4 | Cn1cc(-c2ccc(CN3C(=O)C(O)(C(F)(F)F)c4ccccc43)c(F)c2)cn1 (single isomer, unassigned) [Compound B2, 1-(2-fluoro-4-(1-methyl-1H-pyrazol-4-yl)benzyl)-3-hydroxy-3-(trifluoromethyl)indolin-2-one]
35 | 3.9 | Cn1cc(-c2ccc(CN3C(=O)C(O)(C(F)(F)F)c4cc(F)ccc43)c(F)c2)cn1 (stereo not shown) [Compound B3]
41 | > 10 | Cn1cc(-c2ccc(CN3C(=O)C(O)(C(F)(F)F)c4ccccc43)c(Cl)c2)cn1 (stereo not shown) [Compound B10, 1-(2-chloro-4-(1-methyl-1H-pyrazol-4-yl)benzyl)-3-hydroxy-3-(trifluoromethyl)indolin-2-one]
63 | > 10 | Cn1cc(-c2ccc(CN3C(=O)C(O)(C(F)(F)F)c4ccccc43)cc2)cn1 (stereo not shown) [Compound B12]
31 | > 10 | CCCn1cc(-c2ccc(CN3C(=O)C(O)(C(F)(F)F)c4ccccc43)c(F)c2)cn1 (stereo not shown) [Compound B16]
46 | 1.36 | Cn1cc(-c2ccc(CN3C(=O)C(N)c4ccccc43)c(F)c2)cn1 (stereo not shown) [Compound B20]
44 | > 10 | CC(c1ccc(-c2cnn(C)c2)cc1F)N1C(=O)Cc2ccccc21 (stereo not shown) [Compound B24]
